The species entered for this assay is Rattus norvegicus. Description: Inhibition of rat recombinant geranylgeranyltransferase type I expressed in Escherichia coli assessed as residual enzyme activity for geranylgeranylation of K-Ras4B at 50 uM incubated for 30 mins in presence of [3H]GGPP by scintillation counting assay relative to control.

Here are results for 51 compounds from ChEMBL document CHEMBL4421722, “Inhibitors of protein prenyltransferases” (2013).

Turning to `CCOc1ccc([C@@H]2C[C@@H](Sc3ccc(C)cc3)[C@H](C(=O)O)CN2S(=O)(=O)c2ccc(C)cc2)cc1`, the Activity was 65.4%.
Turning to `COc1ccc([C@@H]2CC=C(C(C)=O)CN2S(=O)(=O)c2ccccc2C)cc1`, the Activity came to 77.3%.
With `COc1ccc([C@@H]2C[C@@H](Sc3ccc(Cl)cc3)[C@H](C(=O)O)CN2S(=O)(=O)c2ccc(C)cc2)cc1OC` the figure was 107%.
For `Cc1ccc([C@@H]2C[C@@H](SCC(C)C)[C@H](C(=O)O)CN2S(=O)(=O)c2ccc(Cl)cc2)cc1` the value was 66.3%.
Regarding `COc1ccc(S[C@@H]2C[C@@H](c3ccc(OC)cc3)N(S(=O)(=O)c3ccccc3)C[C@H]2C(=O)O)cc1`, the Activity worked out at 90.5%.
With `Cc1ccc([C@@H]2CC=C(C(=O)O)[C@H](c3cccc(C)c3)N2S(=O)(=O)c2ccc(C)cc2)cc1`, the Activity turned out to be 66.3%.
For `CCCS[C@@H]1C[C@@H](c2ccc(C)cc2)N(S(=O)(=O)c2ccccc2)C[C@H]1C(=O)O` the value was 100%; for `COc1ccc([C@@H]2CC=C(C(=O)O)[C@H](c3ccc(Cl)cc3)N2S(=O)(=O)c2ccc(Cl)cc2)cc1`, 72.6%; for `COc1cccc([C@@H]2CC=C(C(=O)O)[C@H](c3cccc(C)c3)N2S(=O)(=O)c2ccc(C)cc2)c1`, 98.6%.
For `Cc1ccc(S[C@@H]2C[C@@H](c3ccc(C)cc3)N(S(=O)(=O)c3ccc(C)cc3)C[C@H]2C(=O)O)cc1` the value was 62.4%; for `COc1ccc(S[C@@H]2C[C@@H](c3ccccc3F)N(S(=O)(=O)c3ccc(C)cc3)C[C@H]2C(=O)O)cc1`, 100%.
For `Cc1ccc([C@H]2C(C(=O)O)=CC[C@@H](c3cccc(F)c3)N2S(=O)(=O)c2ccc(C)cc2)cc1` the value was 81.3%; for `Cc1ccc(S(=O)(=O)N2[C@@H](c3cccc(Cl)c3)C(C(=O)O)=CC[C@H]2c2ccc(F)cc2)cc1`, 66.7%.
In the case of `COc1ccc([C@@H]2C[C@@H](SCc3ccc(C(C)(C)C)cc3)[C@H](C(=O)O)CN2S(=O)(=O)c2ccc(C)cc2)cc1OC`, the Activity was 78.9%.
Take `Cc1ccc(S[C@@H]2C[C@@H](c3ccccc3)N(S(=O)(=O)c3ccc(C)cc3)C[C@H]2C(=O)O)cc1`: the Activity turned out to be 98%.
For `CC(=O)C1=CC[C@@H](c2ccc(C(C)C)cc2)N(S(=O)(=O)c2ccc(C)cc2)C1` the value was 105%; for `CC(=O)C1=CC[C@@H](c2cccs2)N(S(=O)(=O)c2ccc(C)cc2)C1`, 90.3%.
For `CS(=O)(=O)N1[C@@H](c2ccc(Cl)cc2)C(C(=O)O)=CC[C@H]1c1ccc(Cl)cc1` the value was 55%; for `Cc1ccc([C@@H]2C[C@@H](SCC(C)C)[C@H](C(=O)O)CN2S(=O)(=O)c2ccccc2C)cc1`, 78.3%; for `Cc1ccc([C@@H]2C[C@@H](SCCC(C)C)[C@H](C(=O)O)CN2S(=O)(=O)c2ccc(C)cc2)cc1`, 92.9%.
For `COc1ccc([C@@H]2C[C@@H](SCCC(C)C)[C@H](C(=O)O)CN2S(=O)(=O)c2ccc(C)cc2)cc1` the value was 90%; for `Cc1cccc([C@H]2C(C(=O)O)=CC[C@@H](c3ccc(Cl)cc3)N2S(C)(=O)=O)c1`, 45.5%; for `Cc1ccc(S(=O)(=O)N2C[C@@H](C(=O)O)[C@H](SCc3ccc(Cl)cc3)C[C@H]2c2ccccc2F)cc1`, 61.4%.
With `COc1ccc([C@@H]2C[C@@H](Sc3ccccc3)[C@H](C(=O)O)CN2S(=O)(=O)c2ccccc2)cc1`, the Activity is 103%.
With `CS(=O)(=O)N1[C@@H](c2cccc(Br)c2)C(C(=O)O)=CC[C@H]1c1ccccc1` the figure was 63.5%.
With `CCCCCCS[C@@H]1C[C@@H](c2ccc(OC)cc2)N(S(=O)(=O)c2ccccc2)C[C@H]1C(=O)O` the figure was 96.2%.
With `Cc1ccc(S(=O)(=O)N2[C@@H](c3cccc(C)c3)C(C(=O)O)=CC[C@H]2c2ccccc2)cc1` the figure was 64.9%; with `Cc1ccc([C@@H]2CC=C(C(=O)O)[C@H](c3cccc(Cl)c3)N2S(=O)(=O)c2ccc(C)cc2)cc1`, 69.4%.
`Cc1ccc([C@@H]2C[C@@H](SCc3ccc(C(C)(C)C)cc3)[C@H](C(=O)O)CN2S(=O)(=O)c2ccccc2C)cc1`: the Activity came out at 69.5%.
For `Cc1ccc([C@@H]2CC=C(C(=O)O)[C@H](c3ccc(Cl)cc3)N2S(=O)(=O)c2ccccc2C)cc1` the value was 86.8%; for `COc1ccc([C@@H]2C[C@@H](SCc3ccc(C(C)(C)C)cc3)[C@H](C(=O)O)CN2S(=O)(=O)c2ccc(C)cc2)cc1`, 44.1%; for `CCCCS[C@@H]1C[C@@H](c2ccc(OC)cc2)N(S(=O)(=O)c2ccc(C)cc2)C[C@H]1C(=O)O`, 74.5%.
On to `CCOc1ccc([C@@H]2CC=C(C(=O)O)[C@H](c3ccc(F)cc3)N2S(=O)(=O)c2ccc(C)cc2)cc1`, for which the Activity is 66.2%.
With `CCCCCS[C@@H]1C[C@@H](c2ccc3c(c2)OCO3)N(S(=O)(=O)c2ccc(C)cc2)C[C@H]1C(=O)O` the figure was 66%.
As for `Cc1ccc(S(=O)(=O)N2[C@@H](c3ccc(Br)cc3)C(C(=O)O)=CC[C@H]2c2cccs2)cc1`, the Activity came out at 71.2%.
Consider `CCCCCCS[C@@H]1C[C@@H](c2ccc(C)cc2)N(S(=O)(=O)c2ccccc2C)C[C@H]1C(=O)O`, for which the Activity stood at 69.9%.
For `Cc1ccc(S[C@@H]2C[C@@H](c3cccc(Cl)c3)N(S(=O)(=O)c3ccc(C)cc3)C[C@H]2C(=O)O)cc1` the value was 88.8%; for `COc1ccc(S[C@@H]2C[C@@H](c3cccc(Br)c3)N(S(=O)(=O)c3ccc(C)cc3)C[C@H]2C(=O)O)cc1`, 81.4%; for `COc1ccc([C@@H]2CC=C(C(=O)O)[C@H](c3cccc(Br)c3)N2S(=O)(=O)c2ccc(C)cc2)cc1OC`, 59%.
As for `CCCCS[C@@H]1C[C@@H](c2ccc(OC)cc2)N(S(=O)(=O)c2ccc(Cl)cc2)C[C@H]1C(=O)O`, the Activity is 72.9%.
For `Cc1ccc([C@@H]2CC=C(C(=O)O)[C@H](c3cccc(Cl)c3)N2S(=O)(=O)c2ccc(Cl)cc2)cc1` the value was 8.4 to 60%; for `CCS[C@@H]1C[C@@H](c2ccc(C)cc2)N(S(=O)(=O)c2ccccc2)C[C@H]1C(=O)O`, 95%; for `Cc1ccc(S(=O)(=O)N2[C@@H](c3ccc(Cl)cc3)C(C(=O)O)=CC[C@H]2c2ccccc2F)cc1`, 58.2%.
For `Cc1ccc(S(=O)(=O)N2[C@@H](c3ccc(C(C)(C)C)cc3)C(C(=O)O)=CC[C@H]2c2cccs2)cc1` the value was 68.1%.
For `COc1ccc([C@@H]2CC=C(C(=O)O)[C@H](c3cccc(F)c3)N2S(=O)(=O)c2ccc(Cl)cc2)cc1` the value was 69.3%; for `Cc1ccc([C@@H]2C[C@@H](Sc3ccccc3)[C@H](C(=O)O)CN2S(=O)(=O)c2ccc(Cl)cc2)cc1`, 87.1%; for `Cc1ccc(S(=O)(=O)N2[C@@H](c3cccc(C)c3)C(C(=O)O)=CC[C@H]2c2ccc(Cl)cc2)cc1`, 66%.
Consider `COC(=O)c1ccccc1S(=O)(=O)N1[C@@H](c2ccc(Cl)cc2)C(C(=O)O)=CC[C@H]1c1ccc(C)cc1`, for which the Activity was 81.4%.
With `Cc1ccc([C@@H]2CC=C(C(=O)O)[C@H](c3ccc(C(C)(C)C)cc3)N2S(C)(=O)=O)cc1` the figure was 78.2%.
In the case of `Cc1ccc(S(=O)(=O)N2[C@@H](c3ccc(C(C)(C)C)cc3)C(C(=O)O)=CC[C@H]2c2ccc(Cl)cc2)cc1`, the Activity is 102%.
As for `Cc1ccc(S(=O)(=O)N2C[C@@H](C(=O)O)[C@H](SC3CCCC3)C[C@H]2c2cccc(Cl)c2)cc1`, the Activity turned out to be 88.7%.
